Results taken from patent EP2689855B1, “Modified micronization device and use thereof” (Oekomineral AG, priority 2012, dated 2014).
In brackets after ≈: the same amount, converted by molar mass.

Experiments:
Type in all cases: physicochemical
[1] = Water solubility measurement of micronized Pterostilbene; conditions: thermodynamic from solid
Description: 1.00 kg of Pterostilbene (98% purity, Organic Herb, China) 50 µm of crystalline particles as model substance were subjected to micronization from present invention with additional maintaining of low temperature (20 °C) of substance via slow liquid nitrogen stream flow addition through neck feeder. In this preparation discs with blades in the shape of cubes and extruded triangles were used (Figure 7) , according to the present invention.
Such prepared samples of micronized Pterostilbene were subjected to particles size analyses and water solubility measurement.

[2] = Amorphous content / crystalline disorder by isothermal calorimetry (IC TAM 3); conditions: ursolic acid
Description: (§1) 1 kg of each sample of ursolic acid (98% purity, Sigma Aldrich) of an average particle size of 30 µm was micronized five times in devices having different hitting elements. The discs were cooled through a feeder opening with liquid nitrogen spraying to avoid overheating of the heat-sensitive substance.
The micronized samples were analyzed for particle size (Malvern MasterSizer 2000), while the extent of crystalline disorder of particles was quantified with isothermal calorimetry (IC TAM 3, TA instruments, USA). Data was recorded with proprietary software Digitam 4.2.

[3] = Particle size analysis (Malvern MasterSizer 2000) of micronized samples; conditions: ursolic acid
Source text: The influence of the shape of the blades on the efficiency of the micronization has been studied by the use of the micronization device shown in Figures 1 and 2 from the prior art of the following technical characteristics: • (i) diameter of discs (Ø) of micronizer was 370 mm; • (ii) number of layers of hitting elements (blades) on the discs was 3 on primary and 2 on secondary disc; • (iii) number of blades on each of wreaths of discs was 20/16 (outer/inner wreath) from one side; and 18/16 (outer/inner wreath) from the other side of the micronizer; • (iv) the rotation velocity was 10000 rpm;
1 kg of each sample of same zeolite clinoptilolite was micronized by using the device according to the prior art and three different hitting elements as depicted in figures 5, 6 and 8. The disintegrators are characterized by the following data: • 1. Plates formed according to US4406409 A (Figure 5; Micronization-1); • 2. Slightly curved and indented plates according to HR990263 A2 (Figure 6; Micronizationt-2); and • 3. The hitting elements according to the present invention (Figure 8; Micronization-3) […]
as §1
The micronized samples were analyzed for particle size (Malvern MasterSizer 2000), while the extent of crystalline disorder of particles was quantified with isothermal calorimetry (IC TAM 3, TA instruments, USA). Data was recorded with proprietary software Digitam 4.2. […]

COc1cc(/C=C/c2ccc(O)cc2)cc(OC)c1 [Pterostilbene]
solubility ([1]; after seven repeated processes of micronization, blades of present invention (Figure 7)): 128 µg/mL (≈ 499 µM)
solubility ([1]; before micronization): 23 µg/mL (≈ 89.7 µM)

C[C@H]1[C@H](C)CC[C@]2(C(=O)O)CC[C@]3(C)C(=CC[C@@H]4[C@@]5(C)CC[C@H](O)C(C)(C)[C@@H]5CC[C@]43C)[C@H]12 [ursolic acid]
Amorphous Content (%, w/w) ([2]; MICRONIZATION-1, five repeated micronization procedures): 3.68 %, w/w
Amorphous Content (%, w/w) ([2]; MICRONIZATION-2, five repeated micronization procedures): 6.12 %, w/w
Amorphous Content (%, w/w) ([2]; MICRONIZATION-3, five repeated micronization procedures): 19.23 %, w/w
Volume (%) under ([3]; Particles size 0.105 µm, MICRONIZATION-1, five repeated micronization procedures): 0.00%
Volume (%) under ([3]; Particles size 0.105 µm, MICRONIZATION-2, five repeated micronization procedures): 0.00%
Volume (%) under ([3]; Particles size 0.105 µm, MICRONIZATION-3, five repeated micronization procedures): 0.00%
Volume (%) under ([3]; Particles size 0.120 µm, MICRONIZATION-1, five repeated micronization procedures): 0.00%
Volume (%) under ([3]; Particles size 0.120 µm, MICRONIZATION-2, five repeated micronization procedures): 0.00%
Volume (%) under ([3]; Particles size 0.120 µm, MICRONIZATION-3, five repeated micronization procedures): 0.00%
Volume (%) under ([3]; Particles size 0.138 µm, MICRONIZATION-1, five repeated micronization procedures): 0.00%
Volume (%) under ([3]; Particles size 0.138 µm, MICRONIZATION-2, five repeated micronization procedures): 0.00%
Volume (%) under ([3]; Particles size 0.138 µm, MICRONIZATION-3, five repeated micronization procedures): 0.00%
Volume (%) under ([3]; Particles size 0.158 µm, MICRONIZATION-1, five repeated micronization procedures): 0.00%
Volume (%) under ([3]; Particles size 0.158 µm, MICRONIZATION-2, five repeated micronization procedures): 0.00%
Volume (%) under ([3]; Particles size 0.158 µm, MICRONIZATION-3, five repeated micronization procedures): 0.28%
Volume (%) under ([3]; Particles size 0.182 µm, MICRONIZATION-1, five repeated micronization procedures): 0.00%
Volume (%) under ([3]; Particles size 0.182 µm, MICRONIZATION-2, five repeated micronization procedures): 0.00%
Volume (%) under ([3]; Particles size 0.182 µm, MICRONIZATION-3, five repeated micronization procedures): 1.38%
Volume (%) under ([3]; Particles size 0.209 µm, MICRONIZATION-1, five repeated micronization procedures): 0.00%
Volume (%) under ([3]; Particles size 0.209 µm, MICRONIZATION-2, five repeated micronization procedures): 0.12%
Volume (%) under ([3]; Particles size 0.209 µm, MICRONIZATION-3, five repeated micronization procedures): 2.73%
Volume (%) under ([3]; Particles size 0.240 µm, MICRONIZATION-1, five repeated micronization procedures): 0.00%
Volume (%) under ([3]; Particles size 0.240 µm, MICRONIZATION-2, five repeated micronization procedures): 0.46%
Volume (%) under ([3]; Particles size 0.240 µm, MICRONIZATION-3, five repeated micronization procedures): 3.69%
Volume (%) under ([3]; Particles size 0.275 µm, MICRONIZATION-1, five repeated micronization procedures): 0.01%
Volume (%) under ([3]; Particles size 0.275 µm, MICRONIZATION-2, five repeated micronization procedures): 1.19%
Volume (%) under ([3]; Particles size 0.275 µm, MICRONIZATION-3, five repeated micronization procedures): 5.39%
Volume (%) under ([3]; Particles size 0.316 µm, MICRONIZATION-1, five repeated micronization procedures): 0.06%
Volume (%) under ([3]; Particles size 0.316 µm, MICRONIZATION-2, five repeated micronization procedures): 1.97%
Volume (%) under ([3]; Particles size 0.316 µm, MICRONIZATION-3, five repeated micronization procedures): 8.42%
Volume (%) under ([3]; Particles size 0.363 µm, MICRONIZATION-1, five repeated micronization procedures): 0.23%
Volume (%) under ([3]; Particles size 0.363 µm, MICRONIZATION-2, five repeated micronization procedures): 2.83%
Volume (%) under ([3]; Particles size 0.363 µm, MICRONIZATION-3, five repeated micronization procedures): 11.76%
Volume (%) under ([3]; Particles size 0.417 µm, MICRONIZATION-1, five repeated micronization procedures): 0.50%
Volume (%) under ([3]; Particles size 0.417 µm, MICRONIZATION-2, five repeated micronization procedures): 4.09%
Volume (%) under ([3]; Particles size 0.417 µm, MICRONIZATION-3, five repeated micronization procedures): 14.01%
Volume (%) under ([3]; Particles size 0.479 µm, MICRONIZATION-1, five repeated micronization procedures): 0.87%
Volume (%) under ([3]; Particles size 0.479 µm, MICRONIZATION-2, five repeated micronization procedures): 5.36%
Volume (%) under ([3]; Particles size 0.479 µm, MICRONIZATION-3, five repeated micronization procedures): 19.32%
Volume (%) under ([3]; Particles size 0.550 µm, MICRONIZATION-1, five repeated micronization procedures): 1.12%
Volume (%) under ([3]; Particles size 0.550 µm, MICRONIZATION-2, five repeated micronization procedures): 7.01%
Volume (%) under ([3]; Particles size 0.550 µm, MICRONIZATION-3, five repeated micronization procedures): 25.19%
Volume (%) under ([3]; Particles size 0.631 µm, MICRONIZATION-1, five repeated micronization procedures): 2.02%
Volume (%) under ([3]; Particles size 0.631 µm, MICRONIZATION-2, five repeated micronization procedures): 9.13%
Volume (%) under ([3]; Particles size 0.631 µm, MICRONIZATION-3, five repeated micronization procedures): 31.12%
Volume (%) under ([3]; Particles size 0.724 µm, MICRONIZATION-1, five repeated micronization procedures): 3.29%
Volume (%) under ([3]; Particles size 0.724 µm, MICRONIZATION-2, five repeated micronization procedures): 11.51%
Volume (%) under ([3]; Particles size 0.724 µm, MICRONIZATION-3, five repeated micronization procedures): 36.14%
Volume (%) under ([3]; Particles size 0.832 µm, MICRONIZATION-1, five repeated micronization procedures): 4.78%
Volume (%) under ([3]; Particles size 0.832 µm, MICRONIZATION-2, five repeated micronization procedures): 13.61%
Volume (%) under ([3]; Particles size 0.832 µm, MICRONIZATION-3, five repeated micronization procedures): 42.72%
Volume (%) under ([3]; Particles size 0.955 µm, MICRONIZATION-1, five repeated micronization procedures): 6.12%
Volume (%) under ([3]; Particles size 0.955 µm, MICRONIZATION-2, five repeated micronization procedures): 16.29%
Volume (%) under ([3]; Particles size 0.955 µm, MICRONIZATION-3, five repeated micronization procedures): 50.02%
Volume (%) under ([3]; Particles size 1.096 µm, MICRONIZATION-1, five repeated micronization procedures): 8.44%
Volume (%) under ([3]; Particles size 1.096 µm, MICRONIZATION-2, five repeated micronization procedures): 19.17%
Volume (%) under ([3]; Particles size 1.096 µm, MICRONIZATION-3, five repeated micronization procedures): 59.80%
